Patent US10028992B2, “Methods of treating muscular dystrophy” (BOARD OF REGENTS OF THE NEVADA SYSTEM OF HIGHER EDUCATION …, priority 2012, dated 2018)

System: α7 integrin promoter
Assay: muscle cell-based assay: α7βgal+/− myoblasts/myotubes, LacZ reporter, β-galactosidase cleavage of FDG
Parameters: species or system mouse; Results in α7+/− β-galactosidase assay: scale not given here
Conditions: Myoblasts
Procedure, shortened: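 Fluorescein generated from FDG by β-galactosidase reports α7 integrin promoter activity in differentiated myoblasts from α7+/− LacZ knock-in pups. Screening hits then went to dose-response, western blotting and a myostatin counterscreen.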

Compound | Results in α7+/− β-galactosidase assay (0.5 uM) | Results in α7+/− β-galactosidase assay (1 uM) | Results in α7+/− β-galactosidase assay (5 uM) | Results in α7+/− β-galactosidase assay (10 uM) | Results in α7+/− β-galactosidase assay (20 uM) | Results in α7+/− β-galactosidase assay (40 uM)
CCOn1c(=O)c(-c2ccccc2)[n+]([O-])c2ccccc21 [drawing 540] | 0.2811 | 0.2862 | 0.8432 | −0.07816 | 0.1113 | 0.0836
O=S(=O)(N/C(=N/C1CCCCC1)c1ccccc1F)c1ccccc1 [drawing 542] | 0.02381 | 0.1877 | 0.03277 | 0.0429 | 0.04651 | 0.01846
CCCCNc1nnc(Cc2ccc(Cl)cc2)c(O)n1 [drawing 543] | 0.1426 | 0.2067 | −0.06804 | −0.2224 | −0.259 | −0.2813
CC(C)CN(C(=O)c1cccc(Cl)c1)c1c(N)n(Cc2ccccc2)c(=O)[nH]c1=O [drawing 544] | 0.1169 | 0.2337 | 0.01239 | −0.05318 | −0.1028 | −0.2221
Cc1nc(O)nc(O)c1S(=O)(=O)Nc1ccc(F)cc1Cl [drawing 545] | 0.03945 | 0.1557 | 0.0782 | −0.00196 | 0.02136 | −0.01244
Cc1nnc(-c2ccc(N3CCOCC3)c([N+](=O)[O-])c2)o1 [drawing 546] | −0.06474 | −0.06237 | −0.05162 | −0.06761 | −0.1275 | −0.08865
Cc1cc(C)cc(OCC(=O)N/N=C/c2ccccn2)c1 [drawing 547] | 0.02525 | 0.04969 | 0.0722 | −0.00591 | 0.8477 | −0.1757
O=C1Nc2ccccc2/C1=C/c1c[nH]c(-c2ccccc2)n1 [drawing 548] | 0.05646 | 0.09843 | 0.2266 | 0.1719 | 0.06424 | 0.08092
O=C(c1ccccc1)N1CCN(S(=O)(=O)c2cccs2)CC1 [drawing 549] | 0.05147 | 0.1507 | 0.1856 | −0.01279 | 0.05474 | 0.09083
COc1ccccc1C(=O)Nc1ccnn1C1CCN(C(=O)c2ccoc2)CC1 [drawing 551] | −0.09644 | −0.04841 | 0.05814 | 0.02292 | 0.01412 | −0.05323
CCOC(=O)c1nnn(-c2nonc2OC)c1-c1ccccc1 [drawing 552] | 0.01584 | 0.107 | 0.07484 | −0.08302 | 0.003125 | −0.1081
CC(C)(C)Nc1nc(-c2ccc3c(c2)CCN3C(=O)C2CC2)cs1 [drawing 553] | 0.1228 | 0.2827 | 0.1111 | −0.01717 | −0.1366 | −0.2135
CCN(C(=O)c1ccc(S(=O)(=O)N(C)C)cc1)C(C)C(=O)Nc1ccc(C)cc1 (stereo not drawn) [drawing 556] | −0.05004 | −0.1349 | −0.02565 | 0.2444 | −0.07832 | −0.2867
COc1cc(NC(=O)OCc2ccccc2)c2ncccc2c1 [drawing 557] | 0.0156 | −0.08284 | 0.01997 | 0.2347 | −0.06526 | −0.1686
Cc1ccc2c(c1)/C(=C/c1ccccc1C)C(=O)N2 [drawing 558] | 0.05088 | −0.09662 | −0.07445 | 0.08015 | −0.3519 | −0.675
O=C(NCCc1ccccc1)C1CCC(=O)N1C1CCCC1 (stereo not drawn) [drawing 559] | −0.1018 | −0.1461 | 0.003015 | 0.245 | 0.1433 | 0.02863
CCCN(C(=O)c1ccc(S(=O)(=O)N2CCCC2)cc1)C1CCS(=O)(=O)C1 (stereo not drawn) [drawing 560] | −0.1431 | −0.1722 | −0.06143 | 0.1978 | 0.07259 | −0.0646
C=CCOc1ccc(C(=O)/C=C2\C(=O)Nc3ccccc32)cc1 [drawing 561] | −0.1092 | −0.1536 | −0.257 | −0.2991 | −0.2121 | −0.7606
CCN(CC(=O)NCc1cccs1)C(=O)COc1ccc(C(N)=O)cc1 [drawing 562] | −0.04485 | −0.05578 | −0.03005 | 0.2509 | −0.05432 | −0.02246
CC(C)Oc1cccc(C(=O)Nc2ccc(CN3CCOCC3)cc2)c1 [drawing 563] | −0.0458 | −0.04183 | 0.01603 | 0.2092 | 0.7886 | −0.0962
Cc1ccc(/C=C2\C(=O)Nc3ccccc32)o1 [drawing 564] | 0.06962 | 0.01537 | −0.08809 | −0.1824 | −0.2196 | −0.6995
